According to the supplement of paper PMC10307832:

Columns and labels:
Test in all cases: relative viability (nuclei count vs DMSO), 5 days (fraction); higher = more cells survive
Entinostat + AZD7762 = compound: Nc1ccccc1NC(=O)c1ccc(CNC(=O)OCc2cccnc2)cc1 [Entinostat] + NC(=O)Nc1cc(-c2cccc(F)c2)sc1C(=O)N[C@H]1CCCNC1 [AZD7762] (partner 0.2 µM)
How it was run: (§1)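 Each reported value is a median over duplicate plates. It expresses relative viability: treated-well nuclei count divided by vehicle-well nuclei count. Lung cancer cell lines in 1536-well plates were dosed by pin tool a day after seeding, alone with one drug or with a fixed anchor-drug dose plus five library-drug doses (not always all listed) in √10 steps, and nuclei were counted after 5 days.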

Entinostat + Navitoclax = compound: Nc1ccccc1NC(=O)c1ccc(CNC(=O)OCc2cccnc2)cc1 [Entinostat] + CC1(C)CCC(c2ccc(Cl)cc2)=C(CN2CCN(c3ccc(C(=O)NS(=O)(=O)c4ccc(N[C@H](CCN5CCOCC5)CSc5ccccc5)c(S(=O)(=O)C(F)(F)F)c4)cc3)CC2)C1 [Navitoclax] (partner 0.5 µM)
How it was run: as §1

[1] = compound: C1COCCN1C2=NC(=NC3=C2OC4=C3C=CC=N4)C5=CC(=CC=C5)NC(=O)C6=CN=C(C=C6)N + CC(=O)c1c(C)c2cnc(Nc3ccc(N4CCNCC4)cn3)nc2n(C2CCCC2)c1=O [Palbociclib] (partner 0.5 µM)
How it was run: as §1

SGI-1776 + Tozasertib = compound: CN1CCC(CNc2ccc3ncc(-c4cccc(OC(F)(F)F)c4)n3n2)CC1 [SGI-1776] + Cc1cc(Nc2cc(N3CCN(C)CC3)nc(Sc3ccc(NC(=O)C4CC4)cc3)n2)n[nH]1 [Tozasertib] (partner 0.1 µM)
How it was run: as §1

| Cell Line | relative viability (Entinostat + AZD7762; first compound 0.02 µM) | relative viability (Entinostat + AZD7762; first compound 0.06325 µM) | relative viability (Entinostat + AZD7762; first compound 0.2 µM) | relative viability (Entinostat + AZD7762; first compound 0.6325 µM) | relative viability (Entinostat + AZD7762; first compound 2 µM) | relative viability (Entinostat + Navitoclax; first compound 0.02 µM) | relative viability (Entinostat + Navitoclax; first compound 0.06325 µM) | relative viability (Entinostat + Navitoclax; first compound 0.2 µM) | relative viability (Entinostat + Navitoclax; first compound 0.6325 µM) | relative viability (Entinostat + Navitoclax; first compound 2 µM) | relative viability ([1]; first compound 0.02 µM) | relative viability ([1]; first compound 0.06325 µM) | relative viability ([1]; first compound 0.2 µM) | relative viability ([1]; first compound 0.6325 µM) | relative viability ([1]; first compound 2 µM) | relative viability (SGI-1776 + Tozasertib; first compound 0.08 µM) | relative viability (SGI-1776 + Tozasertib; first compound 0.8 µM) | relative viability (SGI-1776 + Tozasertib; first compound 2.53 µM) | relative viability (SGI-1776 + Tozasertib; first compound 8 µM) |
| --- | --- | --- | --- | --- | --- | --- | --- | --- | --- | --- | --- | --- | --- | --- | --- | --- | --- | --- | --- |
| NCI-H2126 | 0.936 | 1.03 | 1.01 | 0.737 | 0.495 | 0.849 | 0.833 | 0.855 | 0.548 | 0.396 | 0.297 | 0.367 | 0.345 | 0.388 | 0.36 | 0.926 | 0.607 | 0.553 | 0.239 |
| NCI-H2170 | 0.876 | 0.878 | 0.825 | 0.602 | 0.193 | 0.626 | 0.553 | 0.502 | 0.33 | 0.196 | 0.405 | 0.395 | 0.407 | 0.422 | 0.275 | 0.708 | 0.692 | 0.452 | 0.181 |
| NCI-H2347 | 0.741 | 0.755 | 0.576 | 0.378 | 0.255 | 0.839 | 0.746 | 0.514 | 0.19 | 0.227 | 0.443 | 0.413 | 0.4 | 0.48 | 0.441 | 0.491 | 0.579 | 0.418 | 0.279 |
| NCI-H2405 | 0.795 | 0.896 | 0.704 | 0.641 | 0.495 | 1 | 1.13 | 1.15 | 0.814 | 0.655 | 0.498 | 0.566 | 0.499 | 0.48 | 0.359 | 0.711 | 0.484 | 0.353 | 0.314 |
| NCI-H3122 | 1.03 | 1.01 | 1.15 | 0.971 | 0.805 | 1.04 | 1 | 1.12 | 0.989 | 0.712 | 0.182 | 0.187 | 0.164 | 0.186 | 0.16 | 0.443 | 0.343 | 0.334 | 0.2 |
| PC-3 [JPC-3] | 1.06 | 0.804 | 0.738 | 0.522 | 0.231 | 0.786 | 0.846 | 0.777 | 0.522 | 0.423 | 0.506 | 0.512 |  | 0.592 | 0.495 | 0.911 | 0.9 | 0.863 | 0.544 |
| PC-14 | 0.577 | 0.364 | 0.397 | 0.165 | 0.0725 | 0.999 | 1.07 | 1.14 | 0.47 | 0.113 | 0.482 | 0.562 | 0.562 | 0.284 | 0.189 | 0.618 | 0.522 | 0.452 | 0.0803 |
| RERF-LC-KJ | 1.12 | 1.07 | 0.748 | 0.707 | 0.329 | 0.679 | 0.905 | 1.13 | 0.414 | 0.314 | 1.04 | 1.15 | 1.21 | 1 | 0.764 | 0.473 | 0.412 | 0.235 | 0.225 |
